Series [1] can be described thus: Inhibition of FTase.
Series [2] concerns the target Apoptosis regulator Bcl-2 (Homo sapiens, UniProt P10415). Briefly: Binding affinity to BCl2.
The nature of series [3]: Inhibition of proteasome. The format is subcellular.
Series [4] in a line: Selectivity ratio of IC50 for cathepsin to IC50 for proteasome.
The target in series [5] is T1, Cathepsin G (Homo sapiens, UniProt P08311).
T1 sequence (P08311 whole entry): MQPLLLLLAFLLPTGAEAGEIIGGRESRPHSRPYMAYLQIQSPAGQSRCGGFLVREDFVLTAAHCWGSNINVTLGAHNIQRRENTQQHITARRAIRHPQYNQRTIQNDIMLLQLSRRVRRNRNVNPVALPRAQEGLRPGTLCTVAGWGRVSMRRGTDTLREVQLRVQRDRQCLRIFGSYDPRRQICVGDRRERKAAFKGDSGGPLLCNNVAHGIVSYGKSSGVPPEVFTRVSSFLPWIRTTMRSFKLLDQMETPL
Briefly: Inhibition of cathepsin G.

Series [6] addresses T1, Cathepsin G. Briefly: Inhibition of cathepsin G in human MOLT4 cells. It is filed as cell-based, MOLT-4.
A short description of series [7]: Aqueous solubility of the compound. The format is physicochemical. As to conditions: aqueous medium.
Series [8] can be described thus: Induction of apoptosis in human CLL cells. It is filed as functional, cell-based.
A short description of series [9]: Oral bioavailability in rat. It is filed as ADME, organism-based. As to conditions: in vivo.
Series [10] is described as follows: Oral bioavailability in dog. Conditions: in vivo. The format is ADME, organism-based, Canis lupus familiaris.
The nature of series [11]: Oral bioavailability in mouse. The format is ADME, organism-based. Conditions: in vivo.

Usually EC50 stands for the concentration that produces a half-maximal response. Higher therefore signals a less potent agent. As a reminder, the Ki is a dissociation constant, usually derived from enzyme kinetics or from competition with a known ligand. Low readings indicate tighter binding, high ones weaker binding. Broadly, the IC50 is the point on the concentration scale where inhibition reaches its midpoint. One may read the solubility as the concentration that dissolves in the medium under given conditions. The low end stands for little dissolved substance, the high end for much dissolved substance. Usually bioavailability stands for dose-corrected exposure relative to a reference, in per cent.

Where only a bound is given, the exact number is not on record here.

Chain of Apoptosis regulator Bcl-2 (P10415 whole entry): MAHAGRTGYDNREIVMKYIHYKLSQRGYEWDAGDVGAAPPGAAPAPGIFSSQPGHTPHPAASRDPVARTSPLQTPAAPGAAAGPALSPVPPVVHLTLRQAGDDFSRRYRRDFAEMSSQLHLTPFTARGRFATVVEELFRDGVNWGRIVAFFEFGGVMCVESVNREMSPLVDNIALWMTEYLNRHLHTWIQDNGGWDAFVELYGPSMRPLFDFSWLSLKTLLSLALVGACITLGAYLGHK

Turning to `Cn1cncc1[C@](N)(c1ccc(Cl)cc1)c1ccc2c(c1)c(-c1cccc(Cl)c1)cc(=O)n2C` [(S)-TIPIFARNIB], the EC50 in series [1] amounted to 1.8 nM. With `CN(C)CC[C@H](CSc1ccccc1)Nc1ccc(S(=O)(=O)NC(=O)c2ccc(N3CCC(C)(C)CC3)cc2)cc1[N+](=O)[O-]`, the affinity in [2], expressed as Ki, was 62 nM. In series [1], `Cn1cncc1[C@@](N)(c1ccc(Cl)cc1)c1ccc2c(c1)c(-c1cccc(Cl)c1)cc(=O)n2C` [TIPIFARNIB] came in with a half-maximal inhibitory concentration (IC50) of 0.6 nM. Regarding `CC(C)C[C@H](NC(=O)[C@H](Cc1ccccc1)NC(=O)c1cnccn1)B(O)O` [BORTEZOMIB], the IC50 in series [3] came to 0.6 nM. The Ratio IC50 in series [4] turned out to be 200000. The molecule `CC(C)C[C@H](NC(=O)[C@@H](NC(=O)c1cccc(-c2ccccc2)n1)[C@@H](C)O)B(O)O` [DELANZOMIB] displayed a 50% inhibitory concentration (IC50) on Cathepsin G [5] of 13.7 nM. Moreover, a half-maximal response on Cathepsin G [6] (EC50) required 13.5 nM. The molecule `CN(C)CC[C@H](CSc1ccccc1)Nc1ccc(S(=O)(=O)NC(=O)c2ccc(N3CCN(Cc4ccccc4-c4ccc(Cl)cc4)CC3)cc2)cc1[N+](=O)[O-]` [ABT 737] displayed a solubility in series [7] of less than 1 µg/mL. The molecule also yielded an EC50 in [8] of 4.5 nM. In the case of `COC[C@H](NC(=O)c1cnc(C)s1)C(=O)N[C@@H](COC)C(=O)N[C@@H](Cc1ccccc1)C(=O)[C@]1(C)CO1`, the bioavailability in [9] is 21%; in series [10], 39%; in series [11], 17%.

Values taken from ChEMBL document CHEMBL1268954, “Toward the development of innovative bifunctional agents to induce differentiation and to promote apoptosis in leukemia: clinical candidates and perspectives” (J Med Chem, 2010).
